“Also recorded” adds a separate entry of the source.
How the values were obtained:
ICAM-1 = ICAM-1 Western blotting with galactose supplementation, healthy cells
PGM1-CDG patients = experiment: Open-label prospective study of oral D-gal supplementation: safety and tolerability; type: in vivo, human
Source text: The study design was an open-label prospective study. Patients with biochemically and genetically confirmed PGM1 deficiency were recruited into the study. Individuals with an existing diagnosis of aldolase B deficiency, galactosemia, hemolytic uremic syndrome, severe anemia, galactose intolerance, or intellectual disability were excluded from the study. Nine patients were enrolled in the study, five females and four males. Patient age ranged from 19 months to 21 years old at the time of enrollment (mean age 9.75 years). Informed written consent was obtained before the start of study. A primary end-point was to assess the safety and tolerability of oral D-gal supplementation and to identify physiological biomarkers that are responsive to D-gal supplementation in a heterogeneous genetic background. The effect of D-gal in PGM1-CDG patients was also monitored via glycomics. Secondary endpoints were the restoration of the plasma glycan subfractions, monitored via glycomics (Table 3), and normalization of antithrombin III activity and serum alanine transaminase (ALT) levels.
Participants in this pilot study received oral D-gal supplementation, added to the regular diet, over 18 weeks. D-gal (pure and soluble D-galactose powder: D-GALACTOSE or Galaxtra™) was provided as medical food/nutritional supplement. 50 g D-gal equals 5 tablespoons of “powdered sugar”. D-gal was added to a meal once a day. It can be added to any food or drink and has a mildly sweet aftertaste.
The D-gal intake was increased over the study period in increments as follows: weeks 0-6 (T0-T1), 0.5 g/kg per day; weeks 6-12 (T1-T2), 1.0 g/kg per day; weeks 12-18 (T2-T3), 1.5 g/kg per day (FIG. 2). The intake was increased gradually to reach the recommended maximum daily dose with minimal gastrointestinal irritation (diarrhea, stomachache, nausea) and metabolic side effects (presence of urinary galactitol).
Tolerability and side effects of oral D-gal supplementation, based on studies in blood (glucose, lactic acid, ammonia, galactose-1-phosphate) and urine (galactitol excretion), were monitored at every time point.
Dietary assessment, clinical evaluation (general physical examination and anthropometric measurements), and laboratory and biochemical studies were completed every 6 weeks (T0, T1, T2 and T3).
Liver transaminases (aspartate transaminase (AST) and alanine transaminase (ALT)), creatine kinase (CK), commonly assayed glycoproteins (thyroid stimulating hormone (TSH), thyroxine-binding globulin (TBG), and insulin-like growth factor binding protein 3 (IGF3BP)), and coagulation parameters (Factor IX, Factor XI, activated […] (aPTT), and anti-thrombin III (ATIII)), were measured in blood. Patent 1 had additional Factor XI, and XIII measurements. Serum galactose-1-phosphate and urine galactitol were measured to monitor safety and tolerability of galactose supplementation. Biochemical studies to evaluate changes in glycosylation included isoelectric focusing (IEF) of serum transferrin and glycomic analysis in blood by mass spectrometry.
Electrocardiography/echocardiography and hepatic ultrasonography were conducted at T0 and T3.

[1] = cited from earlier work
[2] = tested on: PGM1 deficient cell lines; experiment: Lipid-linked and protein-linked oligosaccharide analysis
[3] = Blood concentration of D-gal after oral dose; type: in vivo, human; conditions: PGM1-CDG patients; 1-1.5 g/kg/day oral
Method: An oral dose of 0.3 g/kg D-gal supplement leads to a blood concentration of D-gal at 0.75 mM, 1.0 g/kg D-gal dose corresponds to 2.25 mM peak concentration of D-gal in blood, while an oral dose of 1.5 g/kg galactose supplement leads to a blood peak concentration of 3.5 mM (Tegtmeyer et al. 2014). The blood concentration of free D-galactose in un-supplemented individuals was below 0.01 mM.

[4] = tested on: skin fibroblasts of Patient 2; experiment: N- and O-linked glycan analysis by MALDI-TOF mass spectroscopy; type: cell-based, human
Method: Fibroblasts from Patient 2 were used for N- and O-linked glycan analysis with and without D-gal feeding in vitro. Upon reaching 100% confluence, the cells were washed twice with PBS and harvested using a cell scraper. The cells were then pelleted and washed with PBS by centrifugation. Fibroblast pellets were lysed in 200 μL PBS, and 200 μg protein from the cell lysate was denatured and precipitated with ˜2 Å volume of 100% propanol. N-linked and O-linked glycans were released from precipitated protein, and free oligosaccharides were purified from the supernatant. N-linked glycans were released from the cell pellets using the PNGase F kit from New England Biolabs (Ipswich, Mass., USA). O-linked glycans were released using β-elimination with sodium borohydride. The released N-linked glycans from cells or deprotonated total cell lysate were purified and desalted by solid phase extraction using a SepPak C18 and carbograph column. O-linked glycans from cells were purified and desalted using an AG 50W-X8 resin cation exchange column. N-linked glycans, O-linked glycans and oligosaccharides were permethylated with sodium hydroxide and iodomethane in dimethyl sulfoxide (DMSO). After permethylation, glycans were extracted with water/chloroform (2:1, vol/vol) in four steps and dried. Samples were then dissolved in 50% methanol, spotted with 11% 2,5-dihydroxylbenzoic acid matrix (1:1 vol/vol), and measured in triplicates and compared to two healthy controls. Measurements were performed by MALDI-TOF using the positive mode on Ultraflex MALDI-TOF/TOF system (BrunkerDaltonics, Billerica, Mass., USA) as described elsewhere (see, e.g., Xia et al., 2013 Anal Biochem 442:178-185).

PGM1-CDG fibroblasts = experiment: Galactose supplementation of PGM1-CDG fibroblasts, tracer based metabolomics; type: cell-based, human
Method: To probe the biochemical basis to galactose treatment, a tracer based metabolomics was employed to simultaneously track the activity of multiple pathways. Control and PGM1-CDG fibroblasts were cultured with 13C tagged glucose, with and without galactose. The 13C tracer was then incorporated into connected pathways after which, the cells were harvested to enable detection of metabolites by the mass-spectrometry.

[5] = 4 days of 0.75 mM galactose following 18 hours of serum starvation
[6] = 2 mM galactose added to the culture medium for 5 days

With `O=C[C@H](O)[C@@H](O)[C@@H](O)[C@H](O)CO` [D-gal, D-galactose] the ICAM-1 expression (ICAM-1) was “no effect”, the Serious adverse events (PGM1-CDG patients; 18 weeks oral D-gal) was “No serious adverse events were reported” and the “Galactitol excretion in urine” value (PGM1-CDG patients; during the trial) was “no patients experiencing increased galactitol excretion in urine”. For the same molecule, the Adverse events (PGM1-CDG patients; incremental increase in D-gal intake, monitored weekly) was “Aside from gastroenteritis in patient 2, no clinical or metabolic adverse events”, the Galactose-1-phosphate levels (PGM1-CDG patients; patients 1, 2, 3, 5, 7, 9, T2 and T3) was “no abnormalities were found” and the “Structural cardiac or liver changes” value (PGM1-CDG patients; study endpoint) was “No structural cardiac or liver changes were noted”. For the same molecule, the Clinical rhabdomyolysis (PGM1-CDG patients; while on galactose supplementation) was “none of the patients experienced clinical rhabdomyolysis”, the “Peak concentration of D-gal in blood” value ([1]; 1.0 g/kg dose) was 2.25 mM and the “Blood concentration of D-gal” value ([1]; oral dose of 0.3 g/kg) was 0.75 mM. For the same molecule, the Blood peak concentration ([1]; oral dose of 1.5 g/kg) was 3.5 mM, the PLO profile ([2]; all four patient cell lines) was “In none of the patients galactose supplementation had an effect” and the “Shortened LLO (Man9GlcNAc2-PP-dolichol)” value ([2]; patient 8) was “No improvement”. For the same molecule, the “Shortened LLO (Man9GlcNAc2-PP-dolichol)” value ([2]; patients 1, 2, cell-line 2013Y, 10 mM D-gal, LLO profile similar to control) was “reduction of shortened LLO”, the “Peak concentration of galactose in blood” value [3] was 0.75 to 2 mM and the “N-glycan m/z 2070.06 Hexose5HexNAc4, Level” value [4, 5] was “Normal”. For the same molecule, the “N-glycan m/z 2431 Sial1Hexose5HexNAc4, Level” value [4, 5] was “Normal”, the “N-glycan m/z 2605 + 2431 monosialo biantennary glycans, Level” value [4, 5] was “High” and the “N-glycan m/z 2605 Fuc1Sial1Hexose5HexNAc4, Level” value [4, 5] was “High”. For the same molecule, the “O-glycan m/z 1256 core1, disialyl T, Level” value [4, 5] was “Low”, the “O-glycan m/z 1706 core2, disalyl, sial2hexose2hexNAc2, Level” value [4, 5] was “High” and the “O-glycan m/z 1706 core2, disalyl, sial2hexose2hexNAc2, % Total glycan” value ([4]; 4 days of 0.75 mM galactose following 18 hours of serum starvation, control range 14%) was 35.12%. The “O-glycan m/z 1256 core1, disialyl T, % Total glycan” value ([4]; 4 days of 0.75 mM galactose following 18 hours of serum starvation, control range 55.12%) was 11.22%, the “N-glycan m/z 2070.06 Hexose5HexNAc4, % Total glycan” value ([4]; 4 days of 0.75 mM galactose following 18 hours of serum starvation, control range <3.88%) was 3.65% and the “N-glycan m/z 2431 Sial1Hexose5HexNAc4, % Total glycan” value ([4]; 4 days of 0.75 mM galactose following 18 hours of serum starvation, control range <3.90%) was 2.23%. For the same molecule, the “N-glycan m/z 2605 Fuc1Sial1Hexose5HexNAc4, % Total glycan” value ([4]; 4 days of 0.75 mM galactose following 18 hours of serum starvation, control range <4.46%) was 6.15%, the “N-glycan m/z 2605 + 2431 monosialo biantennary glycans, % Total glycan” value ([4]; 4 days of 0.75 mM galactose following 18 hours of serum starvation, control range <8.36%) was 8.38% and the “Monosialo core 1 at m/z 895” value ([4]; both in control and PGM1-CDG cells) was “increased”. The “Sialylation of N-glycans” value ([4]; in vitro galactose treatment of fibroblasts) was “improved sialylation”, the “GlcNAcylation in N-linked or O-linked protein glycosylation profiles” value ([4]; patient 2 fibroblasts after serum starvation) was “No change” and the “Cellular UDP-hexose pools” value (PGM1-CDG fibroblasts; [6]) was “significant increase”. The Cellular glycosylation (PGM1-CDG fibroblasts; [6]) was “improved cellular glycosylation”, the “Levels of UDP-glucose and UDP-galactose” value (PGM1-CDG fibroblasts; culture media supplemented with galactose) was “restored depleted levels; also recorded: significantly increased” and the Glycosylation (PGM1-CDG fibroblasts; culture supplemented with galactose) was “restarted stalled glycosylation”.

Source: patent US20220241311A1, “METHODS AND MATERIALS FOR TREATING GLYCOSYLATION DISORDERS” (priority 2018, published 2022)
